Experimental findings from patent publication US20260325685A1, “Radiopharmaceutical Compositions Targeting Carbonic Anhydrase IX and Uses Thereof” (RayzeBio, Inc., priority 2023, published 2026) are described below.

Where two headings read alike, the source gives them in different places. A value given as a limit tells only on which side of the number the result lay.

Experiment [1] addresses T1, human CA-IX (Homo sapiens, UniProt Q16790).
T1 construct: purchased Acro CA9-H82E3
The experiment is described as follows: Surface Plasmon Resonance (SPR) binding kinetics to recombinant human CA-IX (Biacore 8K, single-cycle kinetics, 1:1 binding model). As for the experimental part: (§1) G1. Surface Plasmon Resonance Assay Conditions for hCA-IX and hCA-XII
(§2) Surface Plasmon Resonance (SPR) experiments were conducted on a Biacore 8K instrument (Cytiva, Marlborough, MA) to determine the binding kinetics of the compound to recombinant human CA-IX (Acro, CA9-H82E3) and CA-XII (Creative BioMart, CA12-261H) proteins. The ligands were diluted to 10 μg/mL in PBS-P+ buffer (20 mM phosphate buffer, pH 7.4, with 2.7 mM KCl, 137 mM NaCl, and 0.05% Tween 20) and captured on Series S Streptavidin Sensor Chips (Cytiva, 29699621) to 1200-1800 response units (RU) using a flow rate of 5 μL/min and injection times of 180 seconds for human CA-IX and 75 seconds for human CA-XII. Analyte binding was evaluated using a single-cycle kinetics method over 9 analyte concentrations (100-0.39 nM) in PBS-P+ buffer with 1% DMSO using a 50 μL/min. flow rate, 120 second association time, and 1200 second dissociation time. The flow cell temperature was set to 25° C. Analyte binding curves were fit to a 1:1 binding kinetic model in Biacore Insight Evaluation software (version 4.0.8.20368) following reference flow cell subtraction and DMSO correction to derive the association and dissociation binding constants.

Experiment [2] has as its target T2, human CA-XII (Homo sapiens, UniProt O43570).
T2 construct: purchased Creative BioMart CA12-261H
The experiment in a line: Surface Plasmon Resonance (SPR) binding kinetics to recombinant human CA-XII (Biacore 8K, single-cycle kinetics, 1:1 binding model). On the procedure: as §1, §2

Setting [3] is: read-out: CAIX KD; Chelated Metal: Lu-175; SPR, 25° C., pH 7.4.
[4] abbreviates: read-out: CAXII KD, Chelated Metal: Lu-175, 25° C., pH 7.4.
[5] abbreviates: Chelated Metal: Lu-175; SPR, 25° C., pH 7.4; read-out: CAIX KD.
The mark [6] stands for this setting: Chelated Metal: Lu-175, 25° C., pH 7.4, read-out: CAXII KD.

T2 sequence (O43570 25-354): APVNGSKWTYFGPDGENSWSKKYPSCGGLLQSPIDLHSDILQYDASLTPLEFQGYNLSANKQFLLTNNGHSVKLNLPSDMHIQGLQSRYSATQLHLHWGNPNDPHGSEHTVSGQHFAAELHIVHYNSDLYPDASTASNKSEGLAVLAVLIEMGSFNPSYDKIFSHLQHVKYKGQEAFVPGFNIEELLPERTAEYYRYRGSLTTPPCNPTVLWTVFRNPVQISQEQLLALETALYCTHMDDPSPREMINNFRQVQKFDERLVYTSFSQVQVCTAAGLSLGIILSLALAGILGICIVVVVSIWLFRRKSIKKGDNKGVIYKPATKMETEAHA

The term Kd denotes the concentration at which binding is half-saturated. On to `CC(CCC(=O)N[C@@H](CC(=O)N[C@@H](CC(=O)N[C@@H](CCCCn1cc(C23CC(C(=O)Nc4nnc(S(N)(=O)=O)s4)(C2)C3)nn1)C(=O)NCCOCCOCCNC(=O)CN1CCN(CC(=O)O)CCN(CC(=O)O)CCN(CC(=O)O)CC1)C(=O)O)C(=O)O)(c1ccc(O)cc1)c1ccc(O)cc1.[Lu+3]` [Compound 100], for which the Kd in experiment [1] (setting [3]) was 1 to 2.5 nM; in experiment [2] (setting [4]) it was above 10 nM.
`NS(=O)(=O)c1nnc(NC(=O)C23CC(c4cn(CCCC[C@@H](C(=O)NCCOCCOCCNC(=O)CN5CCN(CC(=O)O)CCN(CC(=O)O)CCN(CC(=O)O)CC5)n5cc(C[C@H](NC(=O)C[C@H](NC(=O)c6n[nH]c7ccccc67)C(=O)O)C(=O)O)nn5)nn4)(C2)C3)s1.[Lu+3]` [Compound 101.1]: the Kd in experiment [1] (setting [5]) was below 1 nM; in experiment [2] (setting [6]), 2.5 to 10 nM.
On the same counts, the results for `CC(CCC(=O)N[C@@H](CC(=O)N[C@@H](Cc1cn([C@@H](CCCCn2cc(C34CC(C(=O)Nc5nnc(S(N)(=O)=O)s5)(C3)C4)nn2)C(=O)NCCOCCOCCNC(=O)CN2CCN(CC(=O)O)CCN(CC(=O)O)CCN(CC(=O)O)CC2)nn1)C(=O)O)C(=O)O)(c1ccc(O)cc1)c1ccc(O)cc1.[Lu+3]` [Compound 101.2] are below 1 nM and 2.5 to 10 nM.
Turning to `CC(CCC(=O)N[C@@H](CC(=O)N[C@@H](Cc1cn([C@@H](CCCCn2cc(C34CCC(C(=O)Nc5nnc(S(N)(=O)=O)s5)(CC3)CC4)nn2)C(=O)NCCOCCOCCNC(=O)CN2CCN(CC(=O)O)CCN(CC(=O)O)CCN(CC(=O)O)CC2)nn1)C(=O)O)C(=O)O)(c1ccc(O)cc1)c1ccc(O)cc1.[Lu+3]` [Compound 101], the Kd in experiment [1] (setting [3]) and in experiment [2] (setting [4]) was below 1 nM each time.
As to `CC(CCCC(=O)N1CCC(C(=O)O)(C(=O)NCC(=O)N[C@@H](CCCCn2cc(CCCC(=O)Nc3nnc(S(N)(=O)=O)s3)nn2)C(=O)NCCOCCOCCNC(=O)CN2CCN(CC(=O)O)CCN(CC(=O)O)CCN(CC(=O)O)CC2)CC1)(c1ccc(O)cc1)c1ccc(O)cc1.[Lu+3]` [Compound 102.1], the results for the Kd in experiment [1] (setting [5]) and in experiment [2] (setting [6]) were below 1 nM and above 10 nM, respectively.
Taken in the same sequence, the figures for `CC(CC(=O)N1CCC(C(N)=O)(C(=O)NCC(=O)N[C@@H](CCCCn2cc(CCCC(=O)Nc3nnc(S(N)(=O)=O)s3)nn2)C(=O)NCCOCCOCCNC(=O)CN2CCN(CC(=O)O)CCN(CC(=O)O)CCN(CC(=O)O)CC2)CC1)(c1ccc(O)cc1)c1ccc(O)cc1.[Lu+3]` [Compound 102.2] were 2.5 to 10 nM and above 10 nM.
With `CC(CCCC(=O)N1CCC(C(N)=O)(C(=O)NCC(=O)N[C@@H](CCCCn2cc(CCCC(=O)Nc3nnc(S(N)(=O)=O)s3)nn2)C(=O)NCCOCCOCCNC(=O)CN2CCN(CC(=O)O)CCN(CC(=O)O)CCN(CC(=O)O)CC2)CC1)(c1ccc(O)cc1)c1ccc(O)cc1` [Compound 102.3], the dissociation constant Kd in experiment [1] (Chelated Metal: None; SPR, 25° C., pH 7.4; read-out: CAIX KD) is below 1 nM; in experiment [2] (Chelated Metal: None, 25° C., pH 7.4, read-out: CAXII KD), above 10 nM. Moreover, the “Ratio (CAXII/CAIX)” value in experiment [1] (KD ratio CAXII/CAIX; Chelated Metal: None) is given as “*** (10 < *** ≤ 50)”.
As to `CC(CC(=O)N1CCC(C(=O)O)(C(=O)NCC(=O)N[C@@H](CCCCn2cc(CCCC(=O)Nc3nnc(S(N)(=O)=O)s3)nn2)C(=O)NCCOCCOCCNC(=O)CN2CCN(CC(=O)O)CCN(CC(=O)O)CCN(CC(=O)O)CC2)CC1)(c1ccc(O)cc1)c1ccc(O)cc1.[Lu+3]` [Compound 102.4], the Kd in experiment [1] (setting [5]) was below 1 nM; in experiment [2] (setting [6]), 2.5 to 10 nM.
Take `CC(CCCC(=O)N1CCC(C(=O)O)(C(=O)NCC(=O)N[C@@H](CCCCn2cc(C34CCC(C(=O)Nc5nnc(S(N)(=O)=O)s5)(CC3)CC4)nn2)C(=O)NCCOCCOCCNC(=O)CN2CCN(CC(=O)O)CCN(CC(=O)O)CCN(CC(=O)O)CC2)CC1)(c1ccc(O)cc1)c1ccc(O)cc1.[Lu+3]` [Compound 102.5]: the values for the Kd in experiment [1] (setting [5]) and in experiment [2] (setting [6]) were below 1 nM and 2.5 to 10 nM, respectively.
As to `CC(CCCC(=O)N1CCC(C(=O)O)(C(=O)NCC(=O)N[C@@H](CCCCn2cc(C34CC(C(=O)Nc5nnc(S(N)(=O)=O)s5)(C3)C4)nn2)C(=O)NCCOCCOCCNC(=O)CN2CCN(CC(=O)O)CCN(CC(=O)O)CCN(CC(=O)O)CC2)CC1)(c1ccc(O)cc1)c1ccc(O)cc1.[Lu+3]` [Compound 102.6], the Kd was below 1 nM in experiment [1] (setting [5]) and above 10 nM in experiment [2] (setting [6]).
On the same counts, the results for `CC(CCCOc1cc(NC(CC(=O)N[C@@H](CCCCn2cc(CCCC(=O)Nc3nnc(S(N)(=O)=O)s3)nn2)C(=O)NCCOCCOCCNC(=O)CN2CCN(CC(=O)O)CCN(CC(=O)O)CCN(CC(=O)O)CC2)C(=O)O)cc(C(=O)O)c1)(c1ccc(O)cc1)c1ccc(O)cc1.[Lu+3]` (stereo partly shown) [Compound 102.7] are below 1 nM and 2.5 to 10 nM.
Taken in the same sequence, the figures for `NS(=O)(=O)c1nnc(NC(=O)CCCc2nnn(CCCC[C@H](NC(=O)C[C@H](Nc3cc(NC(=O)c4n[nH]c5ccc(O)cc45)cc(C(=O)O)c3)C(=O)O)C(=O)NCCOCCOCCNC(=O)CN3CCN(CC(=O)O)CCN(CC(=O)O)CCN(CC(=O)O)CC3)c2C(=O)O)s1.[Lu+3]` [Compound 102.8] were below 1 nM and 1 to 2.5 nM.
For the compound `CC(CCC(=O)N1CCC(C(=O)O)(C(=O)NCC(=O)N[C@@H](CCCCn2cc(CCCC(=O)Nc3nnc(S(N)(=O)=O)s3)nn2)C(=O)NCCOCCOCCNC(=O)CN2CCN(CC(=O)O)CCN(CC(=O)O)CCN(CC(=O)O)CC2)CC1)(c1ccc(O)cc1)c1ccc(O)cc1.[Lu+3]` [Compound 102], the Kd in experiment [1] (setting [3]) was 1 to 2.5 nM; in experiment [2] (setting [4]), above 10 nM.
In the case of `CC(CCC(=O)N[C@@H](CC(=O)N[C@@H](CCC(=O)NC1(C(=O)NCCOCCOCCNC(=O)CN2CCN(CC(=O)O)CCN(CC(=O)O)CCN(CC(=O)O)CC2)CN(C(=O)Cn2cc(CCCC(=O)Nc3nnc(S(N)(=O)=O)s3)nn2)C1)C(=O)O)C(=O)O)(c1ccc(O)cc1)c1ccc(O)cc1.[Lu+3]` [Compound 103.1], the Kd was 1 to 2.5 nM in experiment [1] (setting [5]) and 2.5 to 10 nM in experiment [2] (setting [6]).
As for `CC(CCC(=O)N[C@@H](CC(=O)N[C@@H](CCC(=O)NC1(C(=O)NCCOCCOCCNC(=O)CN2CCN(CC(=O)O)CCN(CC(=O)O)CCN(CC(=O)O)CC2)CCN(C(=O)Cn2cc(CCCC(=O)Nc3nnc(S(N)(=O)=O)s3)nn2)CC1)C(=O)O)C(=O)O)(c1ccc(O)cc1)c1ccc(O)cc1.[Lu+3]` [Compound 103.2], the Kd in experiment [1] (setting [5]) was in the range of 1 to 2.5 nM; in experiment [2] (setting [6]), 2.5 to 10 nM.
As for `CC(CCC(=O)N[C@@H](CC(=O)N[C@@H](CC(=O)NC1(C(=O)NCCOCCOCCNC(=O)CN2CCN(CC(=O)O)CCN(CC(=O)O)CCN(CC(=O)O)CC2)CN(C(=O)Cn2cc(CCC(=O)Nc3nnc(S(N)(=O)=O)s3)nn2)C1)C(=O)O)C(=O)O)(c1ccc(O)cc1)c1ccc(O)cc1.[Lu+3]` [Compound 103.3], the Kd in experiment [1] (setting [5]) was 2.5 to 10 nM; in experiment [2] (setting [6]), above 10 nM.
On to `CC(CCC(=O)N[C@@H](CC(=O)N[C@@H](CC(=O)NC1(C(=O)NCCOCCOCCNC(=O)CN2CCN(CC(=O)O)CCN(CC(=O)O)CCN(CC(=O)O)CC2)CN(C(=O)Cn2cc(CCCCC(=O)Nc3nnc(S(N)(=O)=O)s3)nn2)C1)C(=O)O)C(=O)O)(c1ccc(O)cc1)c1ccc(O)cc1.[Lu+3]` [Compound 103.4], for which the Kd in experiment [1] (setting [5]) and in experiment [2] (setting [6]) was 2.5 to 10 nM each time.
On to `CC(CCC(=O)N[C@@H](CC(=O)N[C@@H](CC(=O)NC1(C(=O)NCCOCCOCCNC(=O)CN2CCN(CC(=O)O)CCN(CC(=O)O)CCN(CC(=O)O)CC2)CN(C(=O)Cn2cc(CCCC(=O)Nc3nnc(S(N)(=O)=O)s3)nn2)C1)C(=O)O)C(=O)O)(c1ccc(O)cc1)c1ccc(O)cc1.[Lu+3]` [Compound 103], for which the Kd in experiment [1] (setting [3]) is 1 to 2.5 nM; in experiment [2] (setting [4]), 2.5 to 10 nM.
